The values below come from patent US7265096B2 (XenoPort, Inc., priority 2002, dated 2007).

A short description of data set [1]: Pharmacokinetics and intestinal exposure to gemcitabine after oral dosing in mice. The note with it: mice, oral, 20 mg-eq. gemcitabine/kg. It counts as in vivo. On the procedure: Blood samples (0.5 mL) were obtained by cardiac puncture from 4 animals at each time point (1, 5, 10, 15, 30, 45 minutes and 1, 2, 4, 6 and 24 hr post-dosing). Samples were immediately transferred to tubes containing 10 μL of tetrahydrouridine (50 μg/mL in 50% methanol/water) to prevent further deamination and aliquots (100 μL) were quenched with a solution of 1% w/w formic acid in acetonitrile (300 μL). Quenched blood samples were stored at −80° C. until analyzed. Following collection of blood samples, the small intestine of each animal was removed, rinsed with saline, scraped to remove the mucosal layer, and the mucosal tissue was transferred to a pre-weighed vial containing 10 μL of tetrahydrouridine (50 μg/mL in 50% methanol/water). Sample vials were snap frozen in dry ice/acetone and stored at −80° C. until analyzed. Mucosal tissue samples were diluted 1:10 in water and 100 μL of the resulting sample was added to 400 μL of methanol.

Another data set concerns the target T1, CNT1 (Homo sapiens, UniProt O00337).
T1 construct: expressed in transfected cells; host or cells: Xenopus laevis oocytes injected with in vitro transcribed RNA
T1 sequence (O00337 1-649): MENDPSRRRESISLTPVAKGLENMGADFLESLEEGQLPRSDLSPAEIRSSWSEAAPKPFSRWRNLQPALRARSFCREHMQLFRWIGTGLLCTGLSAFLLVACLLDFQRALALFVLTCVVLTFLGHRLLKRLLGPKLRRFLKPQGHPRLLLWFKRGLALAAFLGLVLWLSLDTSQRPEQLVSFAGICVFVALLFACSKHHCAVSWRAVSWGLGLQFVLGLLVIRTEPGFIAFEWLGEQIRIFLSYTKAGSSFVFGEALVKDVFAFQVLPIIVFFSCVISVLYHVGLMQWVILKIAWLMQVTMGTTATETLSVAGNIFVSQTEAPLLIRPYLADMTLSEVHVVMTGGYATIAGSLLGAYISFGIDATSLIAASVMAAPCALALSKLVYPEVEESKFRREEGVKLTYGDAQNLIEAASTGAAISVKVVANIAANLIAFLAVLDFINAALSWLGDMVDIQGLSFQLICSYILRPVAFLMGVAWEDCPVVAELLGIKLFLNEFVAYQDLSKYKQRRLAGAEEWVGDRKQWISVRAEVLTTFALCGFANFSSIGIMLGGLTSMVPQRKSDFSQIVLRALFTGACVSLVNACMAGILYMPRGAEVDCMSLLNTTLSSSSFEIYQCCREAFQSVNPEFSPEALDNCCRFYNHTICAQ
The experiment in a line: Mass spectroscopy analysis of active transport into oocytes expressing CNT1. It counts as cell-based. The note with it: 0.1-3 mM, 10-30 minutes, LC/MS/MS, vs non-expressing oocytes. The source says: (§1) Human CNT1, CNT2 and CNT3 transporter cDNAs were subcloned into a modified pGEM plasmid that contains 5′ and 3′ untranslated sequences from the Xenopus β-actin gene. These sequences increase RNA stability and protein expression. Plasmid cDNA was linear zed and used as template for in vitro transcription (Epicentre Technologies transcription kit, 4:1 methylated:non-methylated GTP).
(§2) (b) Mass Spectroscopy Analysis of Active Transport of Compounds into Oocytes Expressing CNT1, CNT2, CNT3, ENT1 or ENT2
(§3) Transporters were expressed in oocytes as described above (a). Experiments were performed 3-5 days following injection. Oocytes were incubated with 0.1-3 mM of compounds for 10-30 minutes in frog ringers solution (90 mM NaCl, 2 mM KCl, 1 mM MgCl2, 2 mM CaCl2, 10 mM NaHEPES, pH 7.45, and 1% BSA). Experiments were performed at room temperature. For each compound, 4-7 oocytes were incubated for each transporter or non-expressing control. Following incubation, oocytes were rapidly washed 4 times in frog ringers solution, and placed one oocyte per well in a 96 well plate. Oocytes were homogenized in 0.15 mL solution containing 50% ethanol:water or 50% methanol:water. Precipitated protein or cellular matter was pelleted by spinning plates at 3000 RPM for 5 minutes. The solvent layer containing the extracted compounds was removed from wells.
The concentration of each compound in the oocyte extract was determined by analytical LC/MS/MS. Briefly, concentrations of test compound were determined using an API 2000 LC/MS/MS instrument equipped with an Agilent 1100 binary pump and a CTC HTS-PAL autosampler. The column was a Phenomenex hydro-RP 4.6×50 mm column. The mobile phase was water with 0.1% formic acid, 0.005% heptafluorobutyric acid (A) and acetonitrile with 0.1% formic acid, 0.005% heptafluorobutyric acid (B). […] The peaks were integrated using Analyst 1.2 quantitation software. Specific uptake was determined by comparison of average uptake in oocytes expressing transporters with uptake in non-expressing oocytes.

For the next data set, the target named is T2, CNT3 (Homo sapiens, UniProt Q9HAS3).
T2 construct: expressed in transfected cells; host or cells: Xenopus laevis oocytes injected with in vitro transcribed RNA
T2 sequence (Q9HAS3 1-691): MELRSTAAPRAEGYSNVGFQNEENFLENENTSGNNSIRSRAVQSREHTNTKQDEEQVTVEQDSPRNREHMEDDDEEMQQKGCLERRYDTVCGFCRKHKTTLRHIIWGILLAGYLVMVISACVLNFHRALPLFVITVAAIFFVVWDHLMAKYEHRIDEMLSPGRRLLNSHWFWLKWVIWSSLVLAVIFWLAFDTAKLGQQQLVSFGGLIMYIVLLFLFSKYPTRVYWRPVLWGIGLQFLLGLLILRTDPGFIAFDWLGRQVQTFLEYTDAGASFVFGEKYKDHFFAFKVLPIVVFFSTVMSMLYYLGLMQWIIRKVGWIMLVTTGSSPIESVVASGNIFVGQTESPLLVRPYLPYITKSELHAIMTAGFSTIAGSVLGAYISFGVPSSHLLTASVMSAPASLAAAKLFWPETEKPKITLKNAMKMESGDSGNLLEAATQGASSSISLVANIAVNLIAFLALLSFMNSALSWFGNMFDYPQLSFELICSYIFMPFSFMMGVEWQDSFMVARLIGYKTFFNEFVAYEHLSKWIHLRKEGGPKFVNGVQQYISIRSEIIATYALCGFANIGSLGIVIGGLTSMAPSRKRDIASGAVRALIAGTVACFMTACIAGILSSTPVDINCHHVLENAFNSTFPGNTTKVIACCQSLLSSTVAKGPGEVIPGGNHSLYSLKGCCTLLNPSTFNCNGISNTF
Briefly: Mass spectroscopy analysis of active transport into oocytes expressing CNT3. It counts as cell-based. The note with it: 0.1-3 mM, 10-30 minutes, LC/MS/MS, vs non-expressing oocytes.
From the text: as §1, §2, §3
(§4) The concentration of each compound in the oocyte extract was determined by analytical LC/MS/MS. Briefly, concentrations of test compound were determined using an API 2000 LC/MS/MS instrument equipped with an Agilent 1100 binary pump and a CTC HTS-PAL autosampler. The column was a Phenomenex hydro-RP 4.6×50 mm column. The mobile phase was water with 0.1% formic acid, 0.005% heptafluorobutyric acid (A) and acetonitrile with 0.1% formic acid, 0.005% heptafluorobutyric acid (B). The gradient condition was: 5% B for 0.5 min, then to 95% B in 2.5 min, then maintained at 95% B for 1 min. The mobile phase was returned to 5% B for 2 min. A TurboIonSpray source was used on the API 2000. The analysis was done in positive ion mode and an MRM transition of each analyte was first optimized using the standard solution. 10 μL of the samples were injected onto LC/MS/MS system for analysis. The peaks were integrated using Analyst 1.2 quantitation software. Specific uptake was determined by comparison of average uptake in oocytes expressing transporters with uptake in non-expressing oocytes.

Another data set has as its target T3, ENT2 (Homo sapiens, UniProt Q14542).
T3 construct: expressed in transfected cells; host or cells: Xenopus laevis oocytes injected with RNA
T3 sequence (Q14542 1-456): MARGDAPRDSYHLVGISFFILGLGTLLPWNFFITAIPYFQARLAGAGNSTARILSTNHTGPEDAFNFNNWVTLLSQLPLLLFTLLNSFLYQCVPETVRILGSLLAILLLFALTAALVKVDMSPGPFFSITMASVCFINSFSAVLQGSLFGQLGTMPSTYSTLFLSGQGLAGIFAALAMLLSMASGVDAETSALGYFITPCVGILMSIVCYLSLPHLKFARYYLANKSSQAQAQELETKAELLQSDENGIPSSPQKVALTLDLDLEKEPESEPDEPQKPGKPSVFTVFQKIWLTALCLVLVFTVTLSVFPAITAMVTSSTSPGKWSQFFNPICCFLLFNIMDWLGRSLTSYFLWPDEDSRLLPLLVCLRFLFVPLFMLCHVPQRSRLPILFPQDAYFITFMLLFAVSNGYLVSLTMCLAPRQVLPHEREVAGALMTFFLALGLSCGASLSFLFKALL
Briefly: Mass spectroscopy analysis of active transport into oocytes expressing ENT2. It counts as cell-based. The note with it: 0.1-3 mM, 10-30 minutes, LC/MS/MS, vs non-expressing oocytes. How it is done:
as §2, §3, §4

Another data set addresses T4, ENT1 (Homo sapiens, UniProt Q99808).
T4 construct: expressed in transfected cells; host or cells: Xenopus laevis oocytes injected with RNA
T4 sequence (Q99808 1-456): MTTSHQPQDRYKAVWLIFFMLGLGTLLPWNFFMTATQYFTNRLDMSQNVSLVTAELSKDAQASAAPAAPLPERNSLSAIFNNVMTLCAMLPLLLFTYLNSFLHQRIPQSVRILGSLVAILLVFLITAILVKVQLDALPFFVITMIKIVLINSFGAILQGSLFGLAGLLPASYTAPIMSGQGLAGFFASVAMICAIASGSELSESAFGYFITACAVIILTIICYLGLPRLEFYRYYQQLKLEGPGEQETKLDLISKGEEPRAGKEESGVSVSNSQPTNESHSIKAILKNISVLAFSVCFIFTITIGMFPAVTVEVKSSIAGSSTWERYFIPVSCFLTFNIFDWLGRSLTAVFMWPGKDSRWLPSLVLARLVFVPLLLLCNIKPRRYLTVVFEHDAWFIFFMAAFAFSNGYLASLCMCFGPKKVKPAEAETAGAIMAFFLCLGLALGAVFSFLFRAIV
Briefly: Mass spectroscopy analysis of active transport into oocytes expressing ENT1. The note with it: 0.1-3 mM, 10-30 minutes, LC/MS/MS, vs non-expressing oocytes. It counts as cell-based. How it is done: as §2, §3, §4

With `CC(C)[C@H](N)C(=O)O[C@@H]1[C@@H](CO)O[C@@H](n2ccc(N)nc2=O)C1(F)F` [Compound 3, β-1-(4-Amino-2-oxo-1H-pyrimidin-1-yl)-3-O-(L-valinyl)-2-deoxy-2,2-difluororibose], the “Oral bioavailability as gemcitabine (in words)” value (“Oral bioavailability” for short) in data set [1] is “substantial oral bioavailability”.
Same read-out and setting: as for `CC(C)(C)C(=O)OC(OC(=O)NCCOC(=O)Nc1ccn([C@@H]2O[C@H](CO)[C@@H](O)C2(F)F)c(=O)n1)C(C)(C)C` (stereo partly shown) [Compound 63], the entry is “substantial oral bioavailability”.
`C=C(C)OC(=O)Nc1ccn([C@@H]2O[C@H](CO)[C@@H](O)C2(F)F)c(=O)n1` [Compound 38, β-1-(4-(Propen-2-yl)oxycarbonylamino-2-oxo-1H-pyrimidin-1-yl)-2-deoxy-2,2-difluororibose]: the “Specific uptake into oocytes expressing CNT1” value at CNT1 was “Significant uptake over background”. Moreover, at CNT3, the “Specific uptake into oocytes expressing CNT3” value is reported as “Significant uptake over background”. For the same compound, at ENT2, the “Specific uptake into oocytes expressing ENT2” value is reported as “Significant uptake over background”. Also, the “Specific uptake into oocytes expressing ENT1” value on ENT1 is on record as “Significant uptake over background”. In data set [1], the “Oral bioavailability” value is on record as “substantial oral bioavailability”.
With `O=C(Nc1ccn([C@@H]2O[C@H](CO)[C@@H](O)C2(F)F)c(=O)n1)OCC(F)(F)F` [Compound 36, β-1-(4-(1,1,1-Trifluoroethyl)oxycarbonylamino-2-oxo-1H-pyrimidin-1-yl)-2-deoxy-2,2-difluororibose], the “Specific uptake into oocytes expressing CNT3” value on CNT3 was “specific uptake was observed”. Further, at ENT2, the “Specific uptake into oocytes expressing ENT2” value is given as “specific uptake was observed”. Moreover, the “Specific uptake into oocytes expressing ENT1” value at ENT1 was “specific uptake was observed”. Also, the “Oral bioavailability” value in data set [1] is “substantial oral bioavailability”.
For the compound `CCCCCOC(=O)Nc1ccn([C@@H]2O[C@H](CO)[C@@H](O)C2(F)F)c(=O)n1` [Compound 26, β-1-(4-Pentyloxycarbonylamino-2-oxo-1H-pyrimidin-1-yl)-2-deoxy-2,2-difluororibose], the “Specific uptake into oocytes expressing CNT3” value at CNT3 is on record as “specific uptake was observed”. The “Specific uptake into oocytes expressing ENT2” value on ENT2 is reported as “specific uptake was observed”. At ENT1, the “Specific uptake into oocytes expressing ENT1” value is reported as “specific uptake was observed”. The “Oral bioavailability” value in data set [1] was “substantial oral bioavailability”.
With `CC(C)(C)C(=O)OCCCC(=O)Nc1ccn([C@@H]2O[C@H](CO)[C@@H](O)C2(F)F)c(=O)n1` [Compound 62, β-1-[4-(4-Pivaloyloxybutyroylamino)-2-oxo-1H-pyrimidin-1-yl]-2-deoxy-2,2-difluororibose], the “Specific uptake into oocytes expressing CNT1” value on CNT1 is listed as “Significant uptake over background”. The “Specific uptake into oocytes expressing CNT3” value on CNT3 was “Significant uptake over background”. On ENT2, the “Specific uptake into oocytes expressing ENT2” value is recorded as “Significant uptake over background”. Further, on ENT1, the “Specific uptake into oocytes expressing ENT1” value is “Significant uptake over background”. In addition, the “Oral bioavailability” value in data set [1] is listed as “substantial oral bioavailability”.
Consider `CCOC(=O)Nc1ccn([C@@H]2O[C@H](CO)[C@@H](O)C2(F)F)c(=O)n1` [Compound 11, β-1-(4-Ethoxycarbonylamino-2-oxo-1H-pyrimidin-1-yl)-2-deoxy-2,2-difluororibose], for which, on CNT1, the “Specific uptake into oocytes expressing CNT1” value is “Significant uptake over background”. In addition, at CNT3, the “Specific uptake into oocytes expressing CNT3” value was “Significant uptake over background”. The “Specific uptake into oocytes expressing ENT2” value at ENT2 was “Significant uptake over background”. Further, the “Specific uptake into oocytes expressing ENT1” value at ENT1 is recorded as “Significant uptake over background”. For the same compound, in data set [1], the “Oral bioavailability” value was “substantial oral bioavailability”.
